From patent publication US11685900B2, “Nanofiber-based long-term primary hepatocyte three-dimensional culture system and culturing method” (NANOFAENTECH CO., LTD., priority 2017, dated 2023)

System: primary hepatocytes
Details: mouse, 24 h
Method: Fifty μL of the sample to be quantified and 100 μL of acetonitrile were mixed, centrifuged at 14000 rpm for 10 minutes and the obtained supernatant (130 μL) was dried in nitrogen gas and was dissolved in a solution (10 mM potassium phosphate:acetonitrile, 65%:35% (v/v)) and measured by HPLC (Shimazu Prominence LC-20A) at flow rate of 1 mL/min and at an absorbance of 245 nm for 10 minutes.

CCOc1ccc(NC(C)=O)cc1 [phenacetin]
decrease of the drug administered (50 μM): 75-85% | concentration of phenacetin detected in the culture (500 μM): 350 to 400 µM | concentration of phenacetin detected in the culture medium (500 μM): 350 µM | concentration of phenacetin measured in the culture (500 μM): about 200 μM
